Measured values taken from patent US20220387407A1 (priority 2021, published 2022).
Marks after values point to notes of the source that are not given here.

Tests used:
[1] = test system: freely-moving rats; experiment: Arterial blood gases, pH and A-a gradient after morphine in freely-moving rats
[2] = test system: freely-moving rats; experiment: Tissue O2 saturation (SpO2) analysis after morphine in freely-moving rats; settings: for Cumulative change in sPO2: Post-drug, % change from morphine: 15 min post-morphine value as pre-value
[3] = test system: freely-moving rats; experiment: Blood pressure and heart rate measurement after morphine in freely-moving rats; settings: for DBP, mmHg: Post-drug, % change from Pre (cumulative) / HR/MAP, mmHg/beats/min: Post-drug, % change from Pre (cumulative) / Heart rate (HR), beats/min: Post-drug, % change from Pre (cumulative) / MAP, mmHg: Post-drug, % change from Pre (cumulative) / SBP, MmHg: Post-drug % change from Pre (cumulative): 15-30 min post-morphine; for DBP, mmHg: Post-drug, % change from morphine (cumulative) / HR/MAP, mmHg/beats/min: Post-drug, % change from morphine (cumulative) / Heart rate (HR), beats/min: Post-drug % change from morphine (cumulative) / MAP, mmHg: Post-drug, % change from morphine (cumulative) / SBP, MmHg: Post-drug, % change from morphine (cumulative): final 15 min morphine value as pre-value
[4] = test system: isoflurane-anesthetized rats; settings: rat, in vivo
[5] = test system: conscious rats; design: species or system Sprague-Dawley rats; settings: rat, in vivo
[6] = Tempol 60 mg/kg IV after morphine 10 mg/kg IV, FIG. 14
[7] = Tempol 60 mg/kg IV 15 min after morphine 10 mg/kg IV
[8] = Tempol 100 mg/kg IV 15 min after morphine 10 mg/kg IV

## CN1CC[C@]23c4c5ccc(O)c4O[C@H]2[C@@H](O)C=C[C@H]3[C@H]1C5 [Morphine, morphine]
[1]; morphine 10 mg/kg IV, FIG. 14
  pCO2, change elicited by morphine: equally pronounced increases
  pH, pO2 and sO2, change elicited by morphine: pronounced decreases
[1]; morphine 10 mg/kg IV, FIG. 15
  A-a gradient, change elicited by morphine: rise
[2]; morphine 10 mg/kg IV, FIG. 17
  SpO2, change elicited by morphine: pronounced and long-lasting decrease
[3]; morphine 10 mg/kg IV, FIG. 18
  MAP, change elicited by morphine: relatively minor initial decreases
  heart rate, change elicited by morphine: substantial decreases
[3]; morphine 10 mg/kg IV, FIG. 20
  ratio of heart rate/MAP (index of baroreceptor heart rate reflex activity), change elicited by morphine: somewhat minor reductions

## CC1(C)CC(O)CC(C)(C)N1[O] [Tempol, 4-hydroxy-2,2,6,6-tetramethylpiperidine-N-oxyl]
[1]; [6]
  effects of morphine on pH and sO2, effect of Tempol: not reaching significance
  negative effects of morphine on pCO2 and pO2, effect of Tempol: reversed the negative effects
[1]; Tempol 60 mg/kg IV after morphine 10 mg/kg IV, FIG. 15 top panel
  morphine-induced rise in A-a gradient, effect of Tempol: not affected
[1]; Tempol 100 mg/kg IV after morphine 10 mg/kg IV, 5 min post-administration, FIG. 15 bottom panel
  A-a gradient, effect of Tempol: pronounced decrease
[1]; Tempol 100 mg/kg IV after morphine 10 mg/kg IV, FIG. 16
  negative effects of morphine on pH, pCO2, pO2 and sO2, effect of Tempol: sustained reversal
[2]; [7]
  Cumulative change in sPO2: Post-drug, % change from morphine: +5.0 ± 0.6*^,† %
[2]; Tempol 60 mg/kg IV 15 min after morphine 10 mg/kg IV, FIG. 17
  SpO2, effect of Tempol after morphine: minor short-lived rise
[2]; [8]
  Cumulative change in sPO2: Post-drug, % change from morphine: +12.4 ± 2.0*^,† %
[2]; Tempol 100 mg/kg IV 15 min after morphine 10 mg/kg IV, FIG. 17
  negative effects of morphine on tissue oxygenation (SpO2), effect of Tempol: prompt and sustained reversal
[3]; [7]
  DBP, mmHg: Post-drug, % change from Pre (cumulative): −16.7 ± 1.7 %
  HR/MAP, mmHg/beats/min: Post-drug, % change from Pre (cumulative): +19.2 ± 12.7 %
  Heart rate (HR), beats/min: Post-drug, % change from Pre (cumulative): +1.8 ± 7.1 %
  MAP, mmHg: Post-drug, % change from Pre (cumulative): −13.7 ± 1.7 %
  SBP, MmHg: Post-drug % change from Pre (cumulative): −9.5 ± 1.9 %
  DBP, mmHg: Post-drug, % change from morphine (cumulative): −13.9 ± 2.4*^,† %
  HR/MAP, mmHg/beats/min: Post-drug, % change from morphine (cumulative): +53.3 ± 13.7*^,† %
  Heart rate (HR), beats/min: Post-drug % change from morphine (cumulative): +31.2 ± 10.3*^,† %
  MAP, mmHg: Post-drug, % change from morphine (cumulative): −13.2 ± 1.8*^,† %
  SBP, MmHg: Post-drug, % change from morphine (cumulative): −11.3 ± 1.6*^,† %
[3]; Tempol 60 mg/kg IV 15 min after morphine 10 mg/kg IV, FIG. 18
  MAP, change elicited by Tempol after morphine: minor short-lived fall
[3]; [8]
  DBP, mmHg: Post-drug, % change from Pre (cumulative): −19.6 ± 2.0 %
  HR/MAP, mmHg/beats/min: Post-drug, % change from Pre (cumulative): +18.3 ± 3.9*7%
  Heart rate (HR), beats/min: Post-drug, % change from Pre (cumulative): −6.8 ± 3.0*^,† %
  MAP, mmHg: Post-drug, % change from Pre (cumulative): −19.4 ± 1.5*^,† %
  SBP, MmHg: Post-drug % change from Pre (cumulative): −18.8 ± 1.2*^,† %
  DBP, mmHg: Post-drug, % change from morphine (cumulative): −3.2 ± 4.1 %
  HR/MAP, mmHg/beats/min: Post-drug, % change from morphine (cumulative): +43.0 ± 7.1*^,† %
  Heart rate (HR), beats/min: Post-drug % change from morphine (cumulative): +37.0 ± 9.9*^,† %
  MAP, mmHg: Post-drug, % change from morphine (cumulative): −5.6 ± 3.2 %
  SBP, MmHg: Post-drug, % change from morphine (cumulative): −9.1 ± 2.3*^,† %
[3]; Tempol 100 mg/kg IV 15 min after morphine 10 mg/kg IV, FIG. 18
  MAP, change elicited by Tempol after morphine: prompt and sustained decrease
[3]; Tempol 60 and 100 mg/kg IV 15 min after morphine 10 mg/kg IV, FIG. 18
  morphine-induced bradycardia, effect of Tempol: prompt and sustained reversal
[3]; Tempol 60 or 100 mg/kg IV, especially the 100 mg/kg dose, after morphine 10 mg/kg IV, FIG. 20
  heart rate/MAP ratios, change elicited by Tempol after morphine: rapid and sustained increase
[4]
  frequency of breathing (Freq), change elicited by Tempol: minimal changes
  heart rate (HR), change elicited by Tempol: somewhat minor but sustained decreases
  mean (MAP), diastolic (DBP) and systolic (SBP) arterial blood pressures, change elicited by Tempol: pronounced dose-dependent decreases
  tidal volume (TV) and minute ventilation (MV), change elicited by Tempol: somewhat dose-dependent (relatively minor but sustained) increases
  total responses (all time points summed) in MAP, DBP, SBP and HR elicited by Tempol: significant decreases
  total responses (all time points summed) in TV and MV elicited by Tempol: significant increases
[5]
  tail-flick latencies, effect of Tempol alone: no effects
